The text below walks through data of US20100267803A1, “Regulators Of Fat Metabolism As Anti-Cancer Targets” (The Research Foundation of State University Of New York, priority 2008, published 2010).

Data set [1] relates to BT474 cells. Nature of the data set: RNAi screen, alamarBlue cell proliferation and viability. In kind it is cell-based, human. To be noted: shRNA transfection. The source says:
FIG. 1 An RNAi screen targeting genes overexpressed in breast cancer. (a) Three transfection mixes were produced for each shRNA and each was transfected into triplicate wells of BT474 cells. AlamarBlue was used to monitor cell proliferation and viability. […] (b) The genetic and functional linkage of NR1D1 and PBP. Mb refers to map position on chromosome 17. (c) ERBB2-overexpressing (OEX) and ERBB2 non-overexpressing (non-OEX) breast cancer cell lines as well as the (non-OEX) HMEC and HEK 293 cells were transfected and assayed as in (a). […] Genes clustered with ERBB2 are boxed.
Amplification of the ERBB2 oncogene occurs in 10-34% of breast cancer cases and is correlated with aggressive disease and poor clinical outcome^1. […] However, its success has been tempered by response rates of only 30% when used as a single agent therapy in patients with metastatic ERBB2-positive breast cancer^2. A large number of genes co-overexpressed with ERBB2 in this tumour type have been proposed to contribute to the aggressiveness of this cancer^3-5. Applicants have performed an unbiased functional RNAi screen^8-10 to determine if any of these co-overexpressed genes are essential for ERBB2 positive breast cancer cell survival.
RNAi screen, transfections and constructs. The flag-RevErba (flag-NR1D1) overexpression construct was a generous gift of M. Lazar. The LSXN-neu* (ERBB2) overexpression construct was a generous gift of L. Petti. shRNA constructs were expressed from the pSHAG-MAGIC 2 (pSM2) vector and derived from a genome-wide shRNA library^31. ShRNAs targeting the firefly (Photinus pyralis) luciferase gene were used as controls. Transfection efficiency was monitored by co-transfection with a modified MSCV-Puro vector expressing green fluorescent protein (GFP). The alamarBlue (Biosource) assay was performed 96 h post-transfection, since BT474 cells have a population doubling time of ˜100 hours. For mature sequences of the shRNAs that produced the best results on decreasing BT474 viability, Table S1; a complete list is available in the RNAi Codex web page (http://codex.cshl.edu). The shRNAs targeting the luciferase gene were constructed as described in the RNAi Codex web page (http://codex.cshl.edu/scripts/newmain.pl) using a modified pSM2 vector containing the PheS gene (pSM2-PheS) in the cloning site, as a negative selection marker. The empty vector control (pSM2e) was constructed by XhoI and EcoRI (New England Biolabs) digestion of pSM2-PheS, followed by nucleotide filling of protruding ends by Klenow polymerase and blunt-end ligation. Transfections were performed using FuGENE 6 and HD FuGENE (Roche) according to the manufacturer's protocol. High-throughput transfections were performed using an EpMotion 5070 fluidics station (Eppendorf). For quantification of alamarBlue we used a BioTek HT Synergy plate reader. AlamarBlue values from the RNAi screens on other cell types were also calculated as above and subjected to hierarchical cluster analysis using Cluster 2.11 (M. Eisen Lab).
A general note: Alamar Blue is a resazurin reagent that responds to reducing activity.

Data set [2] deals with ME1 mRNA. Nature of the data set: qRT-PCR of ME1 mRNA in BT474 cells. In kind it is cell-based, human. To be noted: shRNA 48 h. As for the experimental part:
FIG. 5. (a) MDH1 and ME1 mRNA levels of BT474 cells treated with luciferase (control), PBP or NR1D1 shRNAs for 48 h, analyzed by qRT-PCRs. (Error bars are s.d from 3 experiments; **P<0.002 (b) BT474 and MCF-7 cells were transfected with luciferase (control) MDH1 and ME1 shRNAs (Error bars are s.d from 3 individual experiments; ***P=0.0003). (c) BT474 cells) assayed for cleaved Caspase-3 signal by immunofluorescence 48 h after transfection; cell nuclei were stained with Hoechst 33243. (d) Quantification of cleaved Caspase-3 signal from cells in (c). (Error bars are s.d from 3 individual experiments; ***P<0.005). (e) Enzymes involved in fatty acid synthesis and storage that are regulated by NR1D1 and PBP and their proposed contribution to energy production necessary for survival of ERBB2-positive breast cancer cells.
(§1) Cell viability—apoptosis assays. […] At least 30 fields were imaged per single experiment. […] Immunoblotting. […] PCR reaction was run using standard conditions.

Data set [3] deals with ACLY mRNA. Nature of the data set: qRT-PCR of ACLY mRNA in BT474 cells. Format: cell-based, human. The note with it: shRNA or 20 μM GW9662 for 48 h. As for the experimental part:
FIG. 4 NR1D1 and PBP coordinate fatty acid metabolism in breast cancer cells. (a) BT474, MDA-MB-361, MCF-7 and HMEC cells were stained with Oil-Red O lipid and hematoxylin nuclear stains. (b) Fat stores were quantified by BODIPY 493/503 lipid probe staining (Error bars are s.d from 3 individual experiments). (c) FASN, ACLY, ACACA and FADS2 mRNA levels of BT474 cells treated with luciferase (control), PBP or NR1D1 shRNAs, or with vehicle and 20 μM of GW9662 for 48 h, analyzed by qRT-PCRs. (Error bars are s.d from 3 experiments; ***P<0.001, **P=0.005) (d) BT474 cells were transfected with FASN, ACLY and ACACA shRNAs and co-transfected with GFP. Transfected cells were counted at 24 h and 72 h and the 72h-to-24 h ratio for each shRNA was calculated and expressed as % of the control shRNA (luciferase). (Error bars are s.d from 3 individual experiments; **P<0.01, ***P<0.002). (e) BODIPY images and (f) quantification of BT474 cells transfected with luciferase (control), PBP or NR1D1 shRNAs and co-transfected with DsRed (Error bars are s.d from 3 individual experiments; ***P<0.03). Arrows indicate transfected cells.
as §1
A general note: Real-time PCR tracks product formation cycle by cycle.

The test system of data set [4] is PBP. To be noted: after shRNA transfection.
Procedure: Immunoblotting. Cell extracts for western blots were obtained using RIPA buffer (1% Triton X-100, 40mM NaCl, 0.1% SDS, 10 mM Tris pH 8.0) supplemented with complete cocktail of proteinase inhibitors (Roche). For detection of phoshporylated epitopes, the PhosSTOP cocktail of phospatase inhibitors (Roche) was added in the lysis buffer. Protein extracts were separated by SDS-PAGE, transferred to Immobilon-P (Millipore) membranes and immunoblotted according to standard protocols. Blots were imaged using a FluorChem HD (Alpha Innotech) imaging system and images were analyzed by densitometry using the FluorChem 9900 software (Alpha Innotech). Antibodies used: anti-flag (M2; Stratagene), PBP (TRAP220, C-19; Santa Cruz), GAPDH (V-18; Santa Cruz Biotechnology), ERBB2 (clone 42; BD), phospho-ERBB2 (Tyr877, #2241; Cell Signaling Technology), phospho-ERBB2 (Tyr1221/1222, 6B12; Cell Signaling Technology), anti-rabbit IgG-HRP (sc-2204, Santa Cruz Biotechnology), anti-goat IgG-HRP (sc-2768, Santa Cruz Biotechnology), anti-mouse IgG-HRP (#31430; Pierce Biotechnology) qRT-PCR.

Consider “NR1D1 shRNA: shRNA, mature sequence GGCATGGTGTTACTGTGTA (shRNA)”, for which, in data set [1], the “effect on cell proliferation” value is “most dramatic effect on cell proliferation”. For the same substance, the ME1 message levels entry in data set [2] is listed as “significantly decreased”. Also, the ACLY transcript level result in data set [3] is “reduced”.

Take “PBP shRNA: shRNA, mature sequence CCGAGTTCCTCTTATCCTA (shRNA)”: in data set [1], the “effect on cell proliferation” value is “most dramatic effect on cell proliferation”. For the same substance, in data set [4], the PBP protein levels result is listed as “decreased protein levels”. Further, in data set [3], the ACLY transcript level entry is recorded as “reduced”.
